Consider 18 molecules from US10947196B2, “Beta adrenergic agonist and methods of using the same” (CURASEN THERAPEUTICS, INC., priority 2019, dated 2021).

Molecules are shown by their SMILES. Read-outs that look alike come from different tables or passages of the source. Where only a bound is given, the exact number is not on record here.

Format in all cases: cell-based
Test [1] addresses β1-adrenergic receptor (Homo sapiens (Human), UniProt P08588). Description: cAMP Gs dynamic HTRF assay, β1 expressing CHO cells. The settings on record: B1-AR. An outline of the steps:
(§1)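 Intracellular cAMP quantified by Eu-donor/d2-acceptor HTRF after 30 min compound exposure at 37° C in stimulation buffer with IBMX. Concentrations ran 10 μM top, 5-fold steps, 10 points. Cell lines: 1321N1 astrocytoma and CHO expressing β1 or β2; EC50 via four-parameter fit, relative efficacy against isoproterenol.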
Background: TR-FRET usually uses a lanthanide donor and a delayed reading to cut background.

Test [2] has as its target β2 adrenergic receptor (Homo sapiens (Human), UniProt P07550). Briefly: cAMP Gs dynamic HTRF assay, β2 expressing CHO cells. The settings on record: B2-AR. Summed up: as §1
Test [3] has as its target β2 adrenergic receptors in human astrocytoma cells (1321N1) (Homo sapiens (Human), UniProt P07550). Briefly: cAMP HTRF assay in human astrocytoma cells (1321N1). How it is done: cAMP homogeneous time-resolved fluorescence (HTRF). Compound efficacy was determined using the cAMP Gs dynamic HTRF assay (Cisbio, catalog #62AM4PEC) largely following the manufacturer's instructions, also detailed below.
Compound preparation. […] Standard serial dilution curves were 10-point, 5-fold dilutions starting from a highest concentration of 10 μM. […] Assay plates were centrifuged at 500×g for 10 seconds. Compounds and IBMX were prepared at 2× final dose to compensate for addition of cells.
Cell preparation. 1× stimulation buffer, washing PBS (Dulbecco's phosphate-buffered saline, −Mg −Ca; Caisson Labs, catalog #PBL01), assay PBS (Dulbecco's phosphate-buffered saline, +Mg, +Ca; Caisson Labs, catalog #PBL02) and Versene (0.02% EDTA disodium salt solution in PBS without calcium or magnesium; Caisson Labs, catalog #EDL01) were pre-warmed to 37° C. Cells expressing beta-adrenergic receptor were washed in washing PBS to remove growth medium and then released from the surface by incubating with Versene for 5-10 minutes at 37° C. Cells were harvested using assay PBS, counted manually by hemocytometer or by an automated cell counter, pelleted by centrifugation (200×g, 5 minutes) and resuspended in 37° C. 1× stimulation buffer to a final density of 1.5×10^6 cells/mL. 5 μL of the suspended cell solution (7500 cell total) were added to all wells of the 384 well assay plate, the assay plate was covered with an Axygen® plate seal (Corning PCR-SP) and incubated in a humidified 37° C. environment supplemented with 5% CO2 for 30 minutes.
HTRF reagent addition, reading and data analysis. After 30 minutes of cell stimulation with test compound, the assay plates were centrifuged at 500×g for 10 seconds, and incubation was stopped with the addition of 5 μL cAMP-D2 acceptor, diluted 1:21 in detection and lysis buffer 2 (Cisbio 62CL2FDF) was added to all cells. Subsequently, 5 μL Anti-cAMP-Eu Donor, diluted 1:21 in detection and lysis buffer 2, was added to cells. Plates were sealed and reactions gently ‘vortexed’ at 900 rpm on a Heidolph Titramax 1000 for at least 30 minutes at room temperature. Plates were centrifuged again at 500×g for 10 seconds, and HTRF was measured using a Tecan Spark plate reader at 50 flashes per well. […] Potency estimates (EC50) were derived from the four-parameter nonlinear regression of the concentration-effect curve and an estimate of relative efficacy was determined by comparing the magnitude of the test compound HTRF signal window (min−max dose) with the signal window of the full agonist control, isoproterenol.

Test [4] concerns the target B3-AR (Homo sapiens (Human), UniProt P13945). Description: cAMP potency assay, B3-AR expressing CHO-K1 cells.
Setting [5] is: CHO-K1 (HitHunter), read-out: Average pEC50 [Receptor subtype: B1-AR, Cell type: CHO-K1 (HitHunter)] (converted).
[6] abbreviates: CHO-K cells, read-out: Average EC50 [Receptor subtype: B1-AR, Cell type: CHO-K].
[7] abbreviates: CHO-K1 (HitHunter), read-out: Average pEC50 [Receptor subtype: B2-AR, Cell type: CHO-K1 (HitHunter)] (converted).
Where [8] appears, read: CHO-K cells, read-out: Average EC50 [Receptor subtype: B2-AR, Cell type: CHO-K].
Setting [9] is: Endogenous receptor, 1321N1 cells, read-out: Average pEC50 [Receptor subtype: Endogenous, Cell type: 1321N1] (converted).
[10] abbreviates: read-out: Average pEC50 [Receptor subtype: B3-AR, Cell type: CHO-K1] (converted).

Sequence of B3-AR (P13945 whole entry, species assumed): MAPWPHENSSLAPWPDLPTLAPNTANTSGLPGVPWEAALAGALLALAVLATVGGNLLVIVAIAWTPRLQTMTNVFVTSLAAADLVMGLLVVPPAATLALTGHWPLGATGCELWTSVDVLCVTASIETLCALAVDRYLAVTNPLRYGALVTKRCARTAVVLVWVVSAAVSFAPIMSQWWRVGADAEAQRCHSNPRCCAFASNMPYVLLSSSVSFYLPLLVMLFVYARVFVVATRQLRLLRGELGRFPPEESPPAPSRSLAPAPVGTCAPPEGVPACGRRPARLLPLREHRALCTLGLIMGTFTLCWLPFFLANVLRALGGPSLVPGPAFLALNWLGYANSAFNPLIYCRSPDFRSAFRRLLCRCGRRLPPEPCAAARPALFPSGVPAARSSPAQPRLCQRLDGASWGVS
Sequence of β1-adrenergic receptor (P08588 whole entry, species assumed): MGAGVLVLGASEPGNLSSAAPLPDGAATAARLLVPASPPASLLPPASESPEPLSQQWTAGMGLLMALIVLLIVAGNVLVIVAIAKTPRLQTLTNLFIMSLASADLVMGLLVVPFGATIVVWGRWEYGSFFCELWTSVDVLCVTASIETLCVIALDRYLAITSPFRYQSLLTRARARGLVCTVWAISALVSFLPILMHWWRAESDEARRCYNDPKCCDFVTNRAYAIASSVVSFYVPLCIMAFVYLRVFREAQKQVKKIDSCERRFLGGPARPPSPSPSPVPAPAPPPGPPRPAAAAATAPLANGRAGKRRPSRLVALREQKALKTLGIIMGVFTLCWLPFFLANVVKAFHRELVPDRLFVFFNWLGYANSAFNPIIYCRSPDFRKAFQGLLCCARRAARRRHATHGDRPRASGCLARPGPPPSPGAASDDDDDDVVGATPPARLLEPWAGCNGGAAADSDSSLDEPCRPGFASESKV
Sequence of β2 adrenergic receptors in human astrocytoma cells (1321N1) (P07550 whole entry): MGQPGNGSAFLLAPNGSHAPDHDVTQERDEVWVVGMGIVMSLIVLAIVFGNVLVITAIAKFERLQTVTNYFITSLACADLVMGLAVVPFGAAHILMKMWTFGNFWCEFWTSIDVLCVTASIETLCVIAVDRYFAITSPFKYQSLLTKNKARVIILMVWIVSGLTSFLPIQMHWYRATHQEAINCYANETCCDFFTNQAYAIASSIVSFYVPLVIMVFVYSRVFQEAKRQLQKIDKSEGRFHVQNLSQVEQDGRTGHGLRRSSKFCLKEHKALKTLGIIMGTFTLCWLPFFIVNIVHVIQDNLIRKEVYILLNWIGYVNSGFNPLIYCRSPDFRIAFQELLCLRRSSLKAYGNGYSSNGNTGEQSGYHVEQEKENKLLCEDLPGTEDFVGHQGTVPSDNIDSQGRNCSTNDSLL
Sequence of β2 adrenergic receptor (P07550 whole entry, species assumed): as the sequence (P07550 whole entry) above

In the case of `Cc1ccc([C@@H](O)CNC(C)(C)C)nc1C#N` [Compound 03-8], the EC50 in test [1] (setting [5]) is above 1000 nM; in test [1] (setting [6]), above 1000 nM; in test [2] (setting [7]) it was 100 to 1000 nM; in test [2] (setting [8]) it was 100 to 1000 nM; in test [3] (setting [9]), above 1000 nM; in test [4] (setting [10]), above 1000 nM.
Turning to `Cc1ccc([C@H](O)CNC(C)(C)C)nc1C#N` [Compound 03-9], the EC50 in test [1] (setting [5]) was 10 to 100 nM; in test [1] (setting [6]) it was 10 to 100 nM; in test [2] (setting [7]), below 10 nM; in test [2] (setting [8]), below 10 nM; in test [3] (setting [9]), 10 to 100 nM; in test [4] (setting [10]), 100 to 1000 nM.
`CC(C)NC[C@H](O)c1cccc(C2CC2)n1` [Compound 03-10]: the EC50 in test [1] (setting [5]) is 10 to 100 nM; in test [1] (setting [6]) it was 10 to 100 nM; in test [2] (setting [7]), below 10 nM; in test [2] (setting [8]), below 10 nM; in test [3] (Endogenous receptor, 1321N1 cells, read-out: Average EC50 [Receptor subtype: Endogenous, Cell type: 1321N1]), 10 to 100 nM; in test [4] (read-out: Average EC50 [Receptor subtype: B3-AR, Cell type: CHO-K1]), above 1000 nM. The “Average pEC50 [Receptor subtype: Endogenous; Cell type: 1321N1]” value in test [3] (Endogenous receptor, 1321N1 cells) is “B (B = 8-7)”. In addition, the “Average pEC50 [Receptor subtype: B3-AR; Cell type: CHO-K1]” value in test [4] is recorded as “D (D < 6)”.
`CC1(NC[C@H](O)c2cccc(C(F)(F)F)n2)CCC1` [Compound 03-11]: the EC50 in test [1] (setting [5]) was 10 to 100 nM; in test [1] (setting [6]), 10 to 100 nM; in test [2] (setting [7]) it was below 10 nM; in test [2] (setting [8]), below 10 nM; in test [3] (setting [9]), 100 to 1000 nM; in test [4] (setting [10]), above 1000 nM.
`CC(C)(C)NC[C@H](O)c1cccc(C2=CCCC2)n1` [Compound 03-197]: the results for the EC50 in test [1] (setting [5]), in test [2] (setting [7]) and in test [3] (setting [9]) were 10 to 100 nM, below 10 nM and below 10 nM, respectively.
As to `CC(C)(C)NC[C@H](O)c1cccc(C(C)(C)C)n1` [Compound 03-209], the EC50 in test [1] (setting [5]), in test [2] (setting [7]) and in test [3] (setting [9]) was below 10 nM in each case.
For `Cn1cc(-c2cccc([C@@H](O)CNC(C)(C)C)n2)cn1` [Compound 03-215], the EC50 in test [1] (setting [5]) was 100 to 1000 nM; in test [2] (setting [7]) it was below 10 nM; in test [3] (setting [9]), 10 to 100 nM.
As to `CC(C)(C)NC[C@@H](O)c1cccc(-n2ccnc2)n1` [Compound 03-228], the results for the EC50 in test [1] (setting [5]), in test [2] (setting [7]) and in test [3] (setting [9]) were 10 to 100 nM, below 10 nM and below 10 nM, respectively.
For the molecule `CC(C)(C)NC[C@@H](O)c1cccc(Cl)n1` [Compound 03-230], the EC50 in test [1] (setting [5]) is 10 to 100 nM; in test [2] (setting [7]), 10 to 100 nM; in test [3] (setting [9]), 100 to 1000 nM.
Consider `CC(C)(C)NC[C@H](O)c1cccc(C2CCCC2)n1` [Compound 03-237], for which the values for the EC50 in test [1] (setting [5]), in test [2] (setting [7]) and in test [3] (setting [9]) were 10 to 100 nM, below 10 nM and below 10 nM, respectively.
For `C#Cc1cccc([C@H](O)CNC(C)(C)C)n1` [Compound 03-238], the EC50 in test [1] (setting [5]) was 100 to 1000 nM; in test [2] (setting [7]) it was 10 to 100 nM; in test [3] (setting [9]), 100 to 1000 nM.
For the molecule `C=CCc1ncccc1[C@@H](O)CNC(C)(C)C` [Compound 03-243], the values for the EC50 in test [1] (setting [5]), in test [2] (setting [7]) and in test [3] (setting [9]) were above 1000 nM, 10 to 100 nM and 100 to 1000 nM, respectively.
Turning to `Cc1ccc([C@@H](O)CNC(C)(C)C)cn1` [Compound 03-248], the EC50 in test [1] (setting [5]), in test [2] (setting [7]) and in test [3] (setting [9]) was 10 to 100 nM throughout.
As for `COc1ccc(C[C@@H](C)NC[C@H](O)c2ccc(C)nc2)cc1` [Compound 03-249], the EC50 in test [1] (setting [5]), in test [2] (setting [7]) and in test [3] (setting [9]) was below 10 nM throughout.
As for `COc1ccc(C[C@@H](C)NC[C@H](O)c2ccc(OC)nc2C)cc1` [Compound 03-253], the EC50 is above 1000 nM in test [1] (Average pEC50 [Receptor subtype: B1-AR, Cell type: CHO-K1 (HitHunter)], CHO-K1 (HitHunter)); 10 to 100 nM in test [2] (Average pEC50 [Receptor subtype: B2-AR, Cell type: CHO-K1 (HitHunter)], CHO-K1 (HitHunter)); 100 to 1000 nM in test [3].
As to `COc1ccc(C[C@@H](C)NC[C@H](O)c2cccc(OC(F)(F)F)n2)cc1` [Compound 03-257], the EC50 in test [1] (setting [5]) was 10 to 100 nM; in test [2] (setting [7]), below 10 nM; in test [3] (setting [9]), below 10 nM.
Turning to `Cc1ncc(Cl)cc1[C@@H](O)CNC(C)(C)C` [Compound 03-267], the EC50 in test [1] (setting [5]) was 100 to 1000 nM; in test [2] (setting [7]), 10 to 100 nM; in test [3] (setting [9]), 100 to 1000 nM.
Turning to `CC(C)(C)NC[C@H](O)c1cccc(NC2CC(F)C2)n1` (some centres unmarked) [Compound 03-272], the EC50 in test [1] (setting [5]), in test [2] (setting [7]) and in test [3] (setting [9]) was below 10 nM in each case.
